The values that follow come from PMC11402785, “Structural basis for activity switching in polymerases determining the fate of let-7 pre-miRNAs” (Nature Structural & Molecular Biology, 2024).

The target of series [1] is T1, TUT7 (Homo sapiens, UniProt Q5VYS8).
T1 construct: full-length wild type 1-1495; TEV-cleavable N-terminal His6-GST tag, C-terminal twin Strep tag; E. coli KRX
T1 sequence (Q5VYS8 1-1495): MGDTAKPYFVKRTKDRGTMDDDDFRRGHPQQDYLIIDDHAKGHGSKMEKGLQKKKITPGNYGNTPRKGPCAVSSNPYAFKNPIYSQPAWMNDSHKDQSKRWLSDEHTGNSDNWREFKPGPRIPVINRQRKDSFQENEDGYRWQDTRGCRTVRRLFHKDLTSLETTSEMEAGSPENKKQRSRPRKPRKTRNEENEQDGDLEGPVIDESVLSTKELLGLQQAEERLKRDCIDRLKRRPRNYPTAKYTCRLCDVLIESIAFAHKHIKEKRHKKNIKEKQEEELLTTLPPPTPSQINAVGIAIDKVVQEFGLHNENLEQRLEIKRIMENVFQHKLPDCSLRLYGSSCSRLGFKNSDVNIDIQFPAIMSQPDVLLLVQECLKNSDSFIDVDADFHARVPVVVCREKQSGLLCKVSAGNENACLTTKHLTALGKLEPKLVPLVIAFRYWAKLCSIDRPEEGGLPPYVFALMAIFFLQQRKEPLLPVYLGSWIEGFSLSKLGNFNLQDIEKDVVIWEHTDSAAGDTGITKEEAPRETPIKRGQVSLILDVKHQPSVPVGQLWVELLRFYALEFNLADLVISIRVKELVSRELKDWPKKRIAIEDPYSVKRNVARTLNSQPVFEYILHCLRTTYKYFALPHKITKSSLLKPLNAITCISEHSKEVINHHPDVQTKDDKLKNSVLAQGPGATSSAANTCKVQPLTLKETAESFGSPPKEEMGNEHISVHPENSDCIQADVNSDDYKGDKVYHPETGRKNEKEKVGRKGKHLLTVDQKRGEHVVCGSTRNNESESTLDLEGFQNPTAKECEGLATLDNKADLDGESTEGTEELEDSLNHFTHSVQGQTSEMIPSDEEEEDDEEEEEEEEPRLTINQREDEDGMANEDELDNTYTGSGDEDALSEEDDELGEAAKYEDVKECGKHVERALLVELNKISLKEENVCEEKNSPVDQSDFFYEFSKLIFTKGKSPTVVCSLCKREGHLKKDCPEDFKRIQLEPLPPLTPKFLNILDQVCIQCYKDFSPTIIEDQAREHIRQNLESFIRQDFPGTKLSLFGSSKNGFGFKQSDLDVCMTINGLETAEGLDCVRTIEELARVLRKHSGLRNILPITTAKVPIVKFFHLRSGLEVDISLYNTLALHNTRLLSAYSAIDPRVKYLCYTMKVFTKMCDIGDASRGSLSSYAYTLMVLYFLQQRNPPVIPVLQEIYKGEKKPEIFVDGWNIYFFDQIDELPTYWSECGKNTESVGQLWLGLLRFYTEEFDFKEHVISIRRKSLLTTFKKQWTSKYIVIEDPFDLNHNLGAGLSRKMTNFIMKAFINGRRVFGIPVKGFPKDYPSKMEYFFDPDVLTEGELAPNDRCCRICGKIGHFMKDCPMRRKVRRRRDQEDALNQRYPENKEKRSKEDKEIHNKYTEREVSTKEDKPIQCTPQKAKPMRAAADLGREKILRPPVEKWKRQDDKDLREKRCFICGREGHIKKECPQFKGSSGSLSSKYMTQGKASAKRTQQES
In words: cryo-EM structure, […] Å. The format is binding. The conditions noted are these: pre-let-7g, 2 mM CaCl2, 0.5 mM UTPαS, pH 7.8; catalytic pocket of the CM (active site).

The target of series [2] is T1, TUT7. In words: in vitro uridylation of labelled pre-let-7g, denaturing PAGE. The series is classed as biochemical. The conditions noted are these: pre-let-7g RNA co-substrate, no LIN28A, 0.5 mM UTP, 5 mM MgCl2, 50 µM ZnCl2, pH 7.8, 37 °C.
The target in series [3] is T2, human terminal uridylyltransferase 7 (TUT7), full length (1-1495) (human, UniProt Q5VYS8 1-1495).
T2 construct: TUT7 (ZCCHC6), human, residues 1-1495, wild type, synthesised gene; The His6-GST tag is cleavable by tobacco etch virus protease; Unmodified (not PEGylated) enzyme was used for the complexes; also called ZCCHC6; source: E. coli KRX, purified (Strep-XT 4Flow beads, Heparin column, size-exclusion chromatography)
T2 sequence (looked up): T1 sequence (Q5VYS8 1-1495)
In words: cryo-EM structure; ternary complexes of TUT7 or TUT4 with pre-let-7g RNA and LIN28A mixed at a molar ratio of 1:1.5:2, overnight on ice with 0.5 mM UTPalphaS, 2 mM DTT, 2 mM CaCl2, then SEC in 20 mM HEPES pH 7.8, 100 mM NaCl. The conditions noted are these: both partners purified.

A further series addresses T3, TUT7 (ZCCHC6) (Homo sapiens, UniProt Q5VYS8 1-1495).
T3 sequence: T1 sequence (Q5VYS8 1-1495)
The series is described as follows: cryo-EM; UTPalphaS; binary complex, 3.55 A; EMSA: 20 mM HEPES pH 7.8, 100 mM NaCl, 2 mM CaCl2, 50 uM ZnCl2, 5% glycerol, 5 mM DTT, 0.5 mM UTP, RNase inhibitor, on ice 30 min; 0.1 uM RNA, 0.2 uM TUT, 0.3 uM LIN28A; native gel in 1x TBE at 4 C. To be noted: protein: recombinant; tags: N-term His6-GST (TEV cleavable), C-term twin-Strep; hairpin, 1 nt 3' overhang.

Turning to `O=c1ccn([C@@H]2O[C@H](COP(O)(=S)OP(=O)(O)OP(=O)(O)O)[C@@H](O)[C@H]2O)c(=O)[nH]1` (stereo partly shown) [UTPαS], the “cryo-EM structure, 3.55 Å” value at TUT7 [1] is “UTPαS bound and stabilized by the critical residues; F1045, S1047, Q1124, L1126, N1130”.
Take `O=c1ccn([C@@H]2O[C@H](COP(=O)(O)OP(=O)(O)OP(=O)(O)O)[C@@H](O)[C@H]2O)c(=O)[nH]1` [UTP]: the “in vitro uridylation of labelled pre-let-7g, denaturing PAGE” value on TUT7 [2] is recorded as “In vitro activity assays for TUT7 showing mono-uridylation activity in the absence of LIN28A”.

B1: human LIN28A (natural protein)
chain: MGSVSNQQFAGGCAKAAEEAPEEAPEDAARAADEPQLLHGAGICKWFNVRMGFGFLSMTARAGVALDPPVDVFVHQSKLHMEGFRSLKEGEAVEFTFKKSAKGLESIRVTGPGGVFCIGSERRPKGKSMQKRRSKGDRCYNCGGLDHHAKECKLPPQPKKCHFCQSISHMVASCPLKAQQGPSAQGKPTYFREEEEEIHSPTLLPEAQN
notes: LIN28A, human, synthesised gene; Expressed as an N-terminal His6-GST fusion; removal of the tag is not described; The phrase 'full-length wild-type human TUT7 and human LIN28A' may or may not mean that LIN28A was full length; Only the ZK domain is resolved in the maps
In the case of B1, the binding result in series [3] was “binds”.

B2: pre-let-7g (structured_RNA)
RNA: UGAGGUAGUAGUUUGUACAGUUUGAGGGUCUAUGAUACCACCCGGUACAGGAGAUAACUGUACAGGCCACUGCCUUGC
Regarding B2, the binding result with TUT7 (ZCCHC6) is given as “binds”.
